From patent US10947242B2, “[1,2,4]triazolo[1,5and#8208;A]pyrimidine compounds as PDE2 inhibitors” (Janssen Pharmaceutica NV, priority 2016, dated 2021)
Where “and” joins values, the source holds several entries; their conditions need not be identical. Identical values can stand only once. Like-named read-outs stand apart in the source and are kept apart here.

Tests used:
[1] = target: T1, Human recombinant PDE3A (hPDE3A) (Homo sapiens, UniProt Q14432); assay: In vitro assay PDE3A (SPA, 3H-cAMP hydrolysis); assay type: biochemical; details: for IC50: hPDE3B pIC50, read-out: pIC50 (converted); for Emax: read-out: hPDE3B Emax, read-out: Emax;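 as to all read-outs here: the method names PDE3A and the table heading PDE3B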
T1 construct: purchased Scottish Biomedical; host or cells: Sf9 insect cells
T1 sequence (Q14432 whole entry): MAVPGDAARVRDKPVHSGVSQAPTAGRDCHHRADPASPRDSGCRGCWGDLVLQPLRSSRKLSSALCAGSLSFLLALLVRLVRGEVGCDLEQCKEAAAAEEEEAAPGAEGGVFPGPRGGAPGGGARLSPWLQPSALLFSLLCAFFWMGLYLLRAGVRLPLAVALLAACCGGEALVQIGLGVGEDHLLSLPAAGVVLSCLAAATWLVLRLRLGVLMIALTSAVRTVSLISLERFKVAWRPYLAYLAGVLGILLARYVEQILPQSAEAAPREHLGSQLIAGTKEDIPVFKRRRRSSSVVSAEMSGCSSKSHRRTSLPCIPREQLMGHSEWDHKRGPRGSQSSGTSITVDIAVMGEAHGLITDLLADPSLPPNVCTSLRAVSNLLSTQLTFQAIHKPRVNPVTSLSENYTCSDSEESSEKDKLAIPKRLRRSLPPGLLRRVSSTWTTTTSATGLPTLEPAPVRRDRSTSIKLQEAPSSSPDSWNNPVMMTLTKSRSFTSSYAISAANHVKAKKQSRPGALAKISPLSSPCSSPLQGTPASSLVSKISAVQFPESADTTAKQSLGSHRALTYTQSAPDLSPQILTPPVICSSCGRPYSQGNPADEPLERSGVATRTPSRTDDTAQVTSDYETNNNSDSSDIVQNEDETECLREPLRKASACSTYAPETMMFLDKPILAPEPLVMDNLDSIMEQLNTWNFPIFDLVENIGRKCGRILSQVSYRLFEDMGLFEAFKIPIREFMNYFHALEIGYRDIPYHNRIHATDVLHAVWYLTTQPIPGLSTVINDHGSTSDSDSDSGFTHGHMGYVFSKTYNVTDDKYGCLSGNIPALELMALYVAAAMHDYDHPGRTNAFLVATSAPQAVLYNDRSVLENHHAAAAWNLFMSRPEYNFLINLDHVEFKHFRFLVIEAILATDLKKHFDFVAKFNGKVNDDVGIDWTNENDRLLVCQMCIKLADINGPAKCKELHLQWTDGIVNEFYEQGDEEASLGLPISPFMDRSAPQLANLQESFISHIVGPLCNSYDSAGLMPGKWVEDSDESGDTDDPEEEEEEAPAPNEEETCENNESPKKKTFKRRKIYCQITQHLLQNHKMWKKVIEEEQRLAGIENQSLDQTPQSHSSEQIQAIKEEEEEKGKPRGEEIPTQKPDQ
Summary of the method: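 Human PDE3A, cloned from brain, as partially purified Sf9 lysate. Substrate 0.4 μM cAMP plus [3H]-cAMP (2.4 μCi/ml final) in 50 mM Tris pH 7.8, 8.3 mM MgCl2, 1.7 mM EGTA, 60 min at room temperature, 1% DMSO final. Hydrolysis read by SPA scintillation counting against no-enzyme blanks and DMSO controls.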

[2] = target: T2, Human recombinant PDE10A (hPDE10A) (Homo sapiens, UniProt Q9Y233); assay: In vitro assay PDE10A, human clone (SPA, 3H-cAMP hydrolysis); assay type: biochemical
T2 construct: His tag (inferred from metal chelate purification); made in house; host or cells: Sf9 insect cells (baculovirus)
T2 sequence (Q9Y233 267-1055): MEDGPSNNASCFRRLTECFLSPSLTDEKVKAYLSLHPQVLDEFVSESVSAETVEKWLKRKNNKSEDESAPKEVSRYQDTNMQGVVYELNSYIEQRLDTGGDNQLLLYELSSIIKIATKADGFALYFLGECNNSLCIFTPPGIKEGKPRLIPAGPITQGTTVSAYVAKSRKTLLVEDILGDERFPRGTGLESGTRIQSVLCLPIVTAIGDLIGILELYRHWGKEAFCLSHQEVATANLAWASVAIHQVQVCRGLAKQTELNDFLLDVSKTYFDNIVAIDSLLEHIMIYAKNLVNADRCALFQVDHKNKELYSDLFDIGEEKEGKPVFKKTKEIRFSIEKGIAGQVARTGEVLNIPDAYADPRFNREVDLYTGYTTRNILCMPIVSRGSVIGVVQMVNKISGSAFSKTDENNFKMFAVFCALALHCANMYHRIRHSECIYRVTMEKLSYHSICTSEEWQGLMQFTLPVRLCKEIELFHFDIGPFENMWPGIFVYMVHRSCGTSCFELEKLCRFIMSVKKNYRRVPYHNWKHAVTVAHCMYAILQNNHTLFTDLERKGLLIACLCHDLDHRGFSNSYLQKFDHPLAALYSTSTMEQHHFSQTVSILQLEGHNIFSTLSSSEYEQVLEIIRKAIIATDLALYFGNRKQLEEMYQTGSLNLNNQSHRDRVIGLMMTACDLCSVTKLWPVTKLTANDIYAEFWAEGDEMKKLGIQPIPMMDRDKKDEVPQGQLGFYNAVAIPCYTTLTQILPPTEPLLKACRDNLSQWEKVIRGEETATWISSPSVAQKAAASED
Summary of the method: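 Human recombinant PDE10A was expressed in Sf9 cells via baculovirus and incubated with compound in 50 mM Tris pH 7.8, 8.3 mM MgCl2, 1.7 mM EGTA. Substrate was 60 nM cAMP plus 0.008 μCi 3H-cAMP for 60 min at room temperature, read by SPA scintillation counting. Controls used 1% DMSO, and blanks omitted enzyme.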

[3] = target: T3, Human recombinant PDE2A (hPDE2A) (Homo sapiens, UniProt O00408); assay: In vitro assay PDE2A (SPA, 3H-cGMP hydrolysis); assay type: biochemical; details: for Emax: read-out: hPDE2A Emax
T3 construct: His tag (inferred from metal chelate purification); made in house; host or cells: Sf9 insect cells (baculovirus)
T3 sequence (O00408 whole entry): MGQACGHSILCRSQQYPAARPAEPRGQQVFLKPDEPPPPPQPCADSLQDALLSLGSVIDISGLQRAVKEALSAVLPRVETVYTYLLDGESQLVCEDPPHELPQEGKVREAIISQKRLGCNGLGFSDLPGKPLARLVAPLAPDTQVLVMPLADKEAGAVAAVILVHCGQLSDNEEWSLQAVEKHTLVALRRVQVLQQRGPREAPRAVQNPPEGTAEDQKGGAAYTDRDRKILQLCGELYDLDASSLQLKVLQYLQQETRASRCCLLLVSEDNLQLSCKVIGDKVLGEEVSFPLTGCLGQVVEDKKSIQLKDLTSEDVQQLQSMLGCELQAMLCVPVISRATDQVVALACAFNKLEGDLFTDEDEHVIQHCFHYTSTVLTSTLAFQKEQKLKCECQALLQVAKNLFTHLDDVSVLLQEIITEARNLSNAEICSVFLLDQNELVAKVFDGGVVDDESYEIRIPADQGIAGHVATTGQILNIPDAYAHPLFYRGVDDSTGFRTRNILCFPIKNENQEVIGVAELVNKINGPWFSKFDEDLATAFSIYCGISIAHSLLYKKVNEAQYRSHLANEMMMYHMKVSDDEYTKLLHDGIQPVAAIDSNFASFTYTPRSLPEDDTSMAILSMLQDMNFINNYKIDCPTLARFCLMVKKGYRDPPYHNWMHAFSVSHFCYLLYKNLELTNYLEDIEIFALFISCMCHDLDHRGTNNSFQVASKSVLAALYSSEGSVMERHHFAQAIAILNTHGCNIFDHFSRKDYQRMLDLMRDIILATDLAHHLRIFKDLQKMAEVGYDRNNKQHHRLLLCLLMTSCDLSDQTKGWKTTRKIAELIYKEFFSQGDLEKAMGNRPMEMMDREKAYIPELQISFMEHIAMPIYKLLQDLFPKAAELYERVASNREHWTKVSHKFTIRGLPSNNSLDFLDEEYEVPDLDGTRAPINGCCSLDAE

PDE2A = target: T4, PDE2A (Rattus norvegicus, UniProt Q01062); assay: PDE2 occupancy by test compounds, ex-vivo autoradiography with [3H]B-17a; assay type: in vivo, Male Wistar rats; details: for ED50: drug dose producing 50% receptor occupancy, read-out: PDE Occupancy ED50
T4 construct: Twenty μm-thick striatal sections were cut; from tissue; host or cells: rat brain, striatal sections
T4 sequence (Q01062 1-928): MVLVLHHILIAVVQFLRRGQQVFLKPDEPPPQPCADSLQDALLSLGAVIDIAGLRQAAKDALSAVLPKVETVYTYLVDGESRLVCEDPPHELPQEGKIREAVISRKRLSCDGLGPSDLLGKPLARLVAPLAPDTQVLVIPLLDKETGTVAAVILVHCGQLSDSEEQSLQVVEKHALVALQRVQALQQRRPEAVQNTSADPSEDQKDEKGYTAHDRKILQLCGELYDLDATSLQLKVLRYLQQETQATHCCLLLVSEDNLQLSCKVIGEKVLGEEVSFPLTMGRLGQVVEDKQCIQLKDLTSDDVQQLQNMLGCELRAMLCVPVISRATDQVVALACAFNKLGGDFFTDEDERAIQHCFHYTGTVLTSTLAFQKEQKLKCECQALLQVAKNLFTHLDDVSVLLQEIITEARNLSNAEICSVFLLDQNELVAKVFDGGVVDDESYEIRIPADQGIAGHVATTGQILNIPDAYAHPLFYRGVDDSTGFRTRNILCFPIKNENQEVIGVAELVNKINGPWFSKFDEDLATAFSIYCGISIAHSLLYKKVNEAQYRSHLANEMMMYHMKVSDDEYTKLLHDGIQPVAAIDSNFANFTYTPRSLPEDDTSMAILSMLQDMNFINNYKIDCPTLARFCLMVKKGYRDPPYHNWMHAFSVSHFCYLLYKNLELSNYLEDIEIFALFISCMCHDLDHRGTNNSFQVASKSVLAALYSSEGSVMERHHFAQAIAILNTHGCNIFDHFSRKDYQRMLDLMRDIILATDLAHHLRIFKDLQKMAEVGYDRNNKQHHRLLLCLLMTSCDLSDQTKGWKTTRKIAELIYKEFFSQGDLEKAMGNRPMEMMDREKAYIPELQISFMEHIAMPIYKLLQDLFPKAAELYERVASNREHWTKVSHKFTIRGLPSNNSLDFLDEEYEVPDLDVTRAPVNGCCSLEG

[4] = human clone (h), default, read-out: hPDE10A2 Emax
[5] = human clone (h), default, read-out: hPDE10A2 pIC50 (converted)
[6] = human recombinant PDE2A, 10 μM cGMP substrate, read-out: hPDE2A pIC50 (converted)
[7] = read-out: hPDE2A pIC50 (converted)
[8] = human clone by default (no (r) mark), read-out: hPDE10A2 or rPDE10A2 Emax
[9] = human clone by default (no (r) mark), read-out: hPDE10A2 or rPDE10A2 pIC50 (converted)
[10] = sc, 10 mg/kg, route SC (subcutaneous), percentage receptor occupancy, ex-vivo autoradiography, striatum
[11] = po, 10 mg/kg, route PO (oral), percentage receptor occupancy, ex-vivo autoradiography, striatum
[12] = 10 mg/kg, route PO (oral), percentage receptor occupancy, ex-vivo autoradiography, striatum

Compound | IC50 [1] [nM] | Emax [1] [%] | melting point [°C] | Emax [2, 4] [%] | IC50 [2, 5] | IC50 [3, 6] [nM] | Emax ([3]; human recombinant PDE2A) [%] | Emax [3] [%] | IC50 [3, 7] [nM] | also measured
Cc1cc(C)cc(C(=O)N2CCC[C@](C)(c3cc(C(F)F)nc4ncnn34)C2)c1 (single isomer, unassigned) [Compound 206] | > 10000 | -1 | 145.73 | 16 | > 10000 nM | 1660 | 39 | 39 | 1660 | –
Cc1cc(C(=O)N2CCC[C@](C)(c3cc(C(F)F)nc4ncnn34)C2)cc(C)n1 (single isomer, unassigned) [Compound 211] | > 10000 | 13 | 117.5 | 10 | > 10000 nM | > 10000 | 3 | 3 | > 10000 | –
Cc1ccc(C(=O)N2CCC[C@](C)(c3cc(C(F)F)nc4ncnn34)C2)c(C)n1 (single isomer, unassigned) [Compound 210] | > 10000 | 5 | 195.81 | 16 | > 10000 nM | 617 | 56 | 56 | 617 | –
Cn1ccc2c(F)c(C(=O)N3[C@H]4CC[C@H](c5cc(C(F)F)nc6ncnn56)[C@@H]3CC4)ccc21 | – | – | 220.89 | – | – | – | – | – | – | –
C[C@@H]1CCN(C(=O)c2cnc3c(F)cccc3c2)C[C@H]1c1cc(C(F)F)nc2ncnn12 [Compound 325] | 309 | 98 | 226.36 | – | – | – | – | 100 | 1.15 | Emax [2, 8]: 98%; IC50 [2, 9]: 64.6 nM
Cc1cc(C(=O)N2[C@H]3CC[C@H](c4cc(C(F)F)nc5ncnn45)[C@@H]2CC3)cc(C)n1 (racemic) [Compound 31] | – | – | 190.16 | – | 1120 nM | 2.51 | – | – | 2.51 | hPDE3B Emax [1]: 8; hPDE10A2 Emax ([2]; human clone (h), default): 84; hPDE2A Emax [3]: 100; hPDE2A Emax ([3]; human recombinant PDE2A): 100
C[C@@H]1CCN(C(=O)c2ccc3ccccc3c2)C[C@H]1c1cc(C(F)F)nc2ncnn12 [Compound 331] | 50.1 | 99 | 193.87 | – | – | – | – | 98 | 0.479 | Emax [2, 8]: 100%; IC50 [2, 9]: 14.5 nM
C[C@H]1CCN(C(=O)c2ccc3occc3c2)C[C@@H]1c1cc(C(F)F)nc2ncnn12 [Compound 221] | – | – | 122.37 | – | – | – | – | – | – | –
Cc1cc(C(=O)N2CC[C@@H](C)[C@H](c3cc(C(F)F)nc4ncnn34)C2)c(F)c(C)n1 [Compound 70] | 5130 | 66 | – | 93 | 331 nM and 380 nM | 1.74 | 102 | 102 | 1.95 | ED50 (PDE2A; route PO (oral)): 6.4 mg/kg; receptor occupancy at 10 mg/kg (PDE2A; [10]): 65%; hPDE10A2 Emax ([2]; human clone (h), default): 95
COc1cccc2c1OCC(C(=O)N1CC[C@@H](C)[C@H](c3cc(C(F)F)nc4ncnn34)C1)=C2 [Compound 267] | 61.7 | 100 | – | 99 | 11.2 nM | – | – | 102 | 0.398 | receptor occupancy at 10 mg/kg (PDE2A; [11]): 59%; ED50 (PDE2A; route PO (oral)): 11 mg/kg; Emax [2, 8]: 99%; IC50 [2, 9]: 11.2 nM
C[C@@H]1CCN(C(=O)c2cc(Cl)nc(Cl)c2F)C[C@H]1c1cc(C(F)F)nc2ncnn12 [Compound 71] | > 1000 | 32 | – | 94 | 339 nM | 1.86 | 98 | 98 | 1.86 | receptor occupancy at 10 mg/kg (PDE2A; [10]): 49%
Cc1cc(C(=O)N2CC[C@@H](C)[C@H](c3cc(C)nc4ncnn34)C2)cc(C)n1 [Compound 1a] | 2090 | 65 | – | 98 | 12.9 nM | – | – | 100 | – | receptor occupancy at 10 mg/kg (PDE2A; [11]): 37%; IC50 ([3]; hPDE2A pIC50): 0.794 nM; IC50 ([3]; hPDE2A pIC50, human recombinant PDE2A, 10 μM cGMP substrate): 0.794 nM
O=C(c1ccc2ncsc2c1)N1[C@H]2CC[C@@H]1[C@H](c1cc(C(F)F)nc3ncnn13)CC2 [Compound 25b] | – | – | – | – | – | – | – | – | – | PDE2 Occupancy at 10 mg/kg (PDE2A; [12]): −9; hPDE3B Emax [1]: 37; hPDE10A2 Emax ([2]; human clone (h), default): 28; hPDE10A2 pIC50 ([2]; human clone (h), default): <5; hPDE2A Emax [3]: 92; hPDE2A pIC50 [3]: 5.96; hPDE2A Emax ([3]; human recombinant PDE2A): 92; hPDE2A pIC50 ([3]; human recombinant PDE2A, 10 μM cGMP substrate): 5.96
Cc1nc2ccc(C(=O)N3[C@H]4CC[C@H](c5cc(C(F)F)nc6ncnn56)[C@@H]3CC4)cc2o1 [Compound 303] | 6610 | 57 | – | – | – | – | – | 99 | 7.08 | receptor occupancy at 10 mg/kg (PDE2A; [12]): 17%; Emax [2, 8]: 95%; IC50 [2, 9]: 537 nM
COc1ccc(C(=O)N2CC[C@@H](C)[C@H](c3cc(C(F)F)nc4ncnn34)C2)nc1 [Compound 66] | > 10000 | 48 | – | 79 | 2290 nM | 17.4 | 99 | 99 | 17.4 | receptor occupancy at 10 mg/kg (PDE2A; [11]): -14%
CCc1cc(C(=O)N2CC[C@@H](C)[C@H](c3cc(C(F)F)nc4ncnn34)C2)cc(C)n1 [Compound 80] | 4170 | 71 | – | 98 | 81.3 nM | 0.794 | 100 | 100 | 0.794 | ED50 (PDE2A; route PO (oral)): 8.63 mg/kg; receptor occupancy at 10 mg/kg (PDE2A; [10]): 52%
